Results published in patent US10925923B2, “Peptide having anti-inflammatory activity, and use thereof” (CAREGEN CO., LTD., priority 2016, dated 2021).
Where no end group is shown, it is not given here.

How the values were obtained:
TNF-α [1] = assay: TNF-α RT-PCR in LPS-stimulated splenocytes; format: cell-based, mice; settings: mouse splenocytes, LPS stimulator, peptide 0.2, 2, 20 ug/ml
Experimental: [The procedure below names another target; the source lists this target under the same test.] After 6-7-week-old mice were sacrificed to obtain spleen, the spleen was crushed using a cell filter, and centrifuged with serum-free RPMI 1640 medium. The upper layer was discarded, and for removal of red blood cells (RBC), RBC lysis buffer was used.
RBC was removed twice, followed by washing with serum-free RPMI1640 medium, and then an appropriate amount of serum-free RPMI1640 medium was added.
The cells were counted, and seeded in 96-well plate (1×10^6 cells/well) and 24-well plate (1×10^7 cells/dish). The next day, the cells were treated with respective peptide samples (0.2, 2, 20 ug/ml) and the stimulator LPS. Here, the experiment was performed by adjusting the time point.
Total RNA was extracted using Easy Blue (Intron). For synthesis of single-stranded DNA from RNA, RT premix (Intron) was used, and 3 ug of RNA, 2 ug of random hexamer, and DEPC-treated water were added thereto to reach a total volume of 20 ul, followed by reaction for 5 minutes at 65° C. and 1 hour at 42° C. Heating was again conducted at 95° C. for 5 minutes to prepare cDNA.
PCR was conducted by mixing 3 ul of cDNA and 10 pmole primers specific to CGI 58 gene with PCR premix (Intron). PCR conditions were: 94° C. for 30 seconds, 55-56° C. for 30 seconds, and 72° C. for 30 seconds. Genes were analyzed in the conditions in which the PCR results could be exponentially amplified. 5 ul of PCR product was obtained, electrophoresed on 1% agarose gel, and stained with ethidium bromide.

IL-2 = IL-2 RT-PCR in LPS-stimulated splenocytes; format: cell-based, mice; settings: mouse splenocytes, LPS stimulator, peptide 0.2, 2, 20 ug/ml
COX2 = assay: Western blot of COX2 in splenocytes; format: cell-based, mice; settings: peptide 0.2-20 ug/ml, 24 hours
Experimental: The splenocytes obtained in example 1 were seeded in 24-well plate at cell density of 1×10^7 cells/well. Then, after incubation overnight, the cells were treated with the peptides of SEQ ID NO: 1, SEQ ID NO: 2 and SEQ ID NO: 3 with different concentrations (0.2-20 ug/ml), followed by incubation in an incubator at 37° C. for 24 hours, and then the cells were treated with cell lysis buffer to secure lysate, followed by protein quantification. Then, western blotting with respect to the inflammation inducing factor COX2 was conducted, and the results are shown in FIGS. 2a to 2f.

TNF-α [2] = assay: ELISA (splenocytes), TNF-α secretion; format: cell-based, mice; settings: LPS stimulator, 48 hours
Experimental: (§1) The splenocytes treated with the peptide samples and the stimulator LPS in example 1 were incubated for 48 hours, and then the culture media were collected. The obtained media were subjected to an experiment using an ELISA kit (R&D system) for cytokines (TNF-α and INF-γ) to be investigated.

INF-γ = assay: ELISA (splenocytes), INF-γ secretion; format: cell-based, mice; settings: LPS stimulator, 48 hours
Experimental: as §1

TNF-α [3] = assay: ELISA (Raw264.7 cells), TNF-α secretion; format: cell-based; settings: pre-treated at 0.2, 2, 20 ug/ml, then LPS, 24 hours
Experimental: Raw264.7 cells were seeded at 1×10^6 cells/48-well, and incubated overnight. The cells were pre-treated with samples to be investigated at 0.2, 2, and 20 ug/ml, and after 30 minutes, the cells were treated with LPS. Incubation was conducted at the scheduled time point. After 24 hours, the culture media were collected, and the obtained media were subjected to an experiment using an ELISA kit (R&D system) for cytokine (TNF-α) to be investigated.

Raw264.7 cells = assay: FACS intracellular ROS assay (DCF-DA); format: cell-based; settings: pre-treated at 1, 10, 50 ug/ml, then LPS
Experimental: Raw264.7 cells were seeded at 1×10^6 cells/6-well, and incubated overnight. The cells were pre-treated with samples to be investigated at 1, 10, and 50 ug/ml, and after 30 minutes, the cells were treated with LPS. The cells were incubated according to the scheduled time point, and then 30 minutes after the treatment with DCF-DH, the oxidation activity was measured by the degree of fluorescence using FACS.

CD3+ and CD25+ cells = assay: Activation T cell analysis (FACS), CD3 and CD25 markers; format: cell-based, mice; settings: splenocytes, LPS stimulator, 24 hours
Experimental: The cells were treated with the peptide samples and the stimulator LPS as described in example 1, and after 24 hours, the cells were treated with antibody (CD3 and CD25) activation T cell markers for 30 minutes, followed by washing twice with PBS, and then FACS was conducted.

Substance	expression of TNF-α (RT-PCR) (TNF-α [1])	expression of IL-2 (RT-PCR) (IL-2)	expression of COX2 (western blot) (COX2)	secretion of TNF-α in splenocytes (ELISA) (TNF-α [2])	secretion of INF-γ in splenocytes (ELISA) (INF-γ)	secretion of TNF-α in RAW264.7 cells (ELISA) (TNF-α [3])	ROS production (Raw264.7 cells)	CD3+ and CD25+ cells (FACS) (CD3+ and CD25+ cells)
Asp-Asn-Cys-Leu-Arg (DNCLR) [SEQ ID NO: 2]	tend to decrease	tend to decrease	reduced	decreased	decreased	tended to decrease	reduced	decreased
GVQHQASPY [SEQ ID NO: 3]	tend to decrease	tend to decrease	reduced	–	–	decreased	reduced	decreased
Thr-Met-Arg-Asp (TMRD) [SEQ ID NO: 1]	tend to decrease	tend to decrease	reduced	decreased	decreased	tended to decrease	reduced	decreased
